# Where two headings read alike, the source gives them in different places.
# Key:
# [1] = target: T1, human progesterone receptor-A [PRA] isoform (Homo sapiens, UniProt P06401); test: Radioligand binding with human progesterone receptor cytosol ([3H]-progesterone competition); conditions: read-out: Ki (nM) PR
# T1 construct: host or cells: insect SF21 cells (baculovirus)
# T1 sequence (P06401 1-769 isoform P06401-2): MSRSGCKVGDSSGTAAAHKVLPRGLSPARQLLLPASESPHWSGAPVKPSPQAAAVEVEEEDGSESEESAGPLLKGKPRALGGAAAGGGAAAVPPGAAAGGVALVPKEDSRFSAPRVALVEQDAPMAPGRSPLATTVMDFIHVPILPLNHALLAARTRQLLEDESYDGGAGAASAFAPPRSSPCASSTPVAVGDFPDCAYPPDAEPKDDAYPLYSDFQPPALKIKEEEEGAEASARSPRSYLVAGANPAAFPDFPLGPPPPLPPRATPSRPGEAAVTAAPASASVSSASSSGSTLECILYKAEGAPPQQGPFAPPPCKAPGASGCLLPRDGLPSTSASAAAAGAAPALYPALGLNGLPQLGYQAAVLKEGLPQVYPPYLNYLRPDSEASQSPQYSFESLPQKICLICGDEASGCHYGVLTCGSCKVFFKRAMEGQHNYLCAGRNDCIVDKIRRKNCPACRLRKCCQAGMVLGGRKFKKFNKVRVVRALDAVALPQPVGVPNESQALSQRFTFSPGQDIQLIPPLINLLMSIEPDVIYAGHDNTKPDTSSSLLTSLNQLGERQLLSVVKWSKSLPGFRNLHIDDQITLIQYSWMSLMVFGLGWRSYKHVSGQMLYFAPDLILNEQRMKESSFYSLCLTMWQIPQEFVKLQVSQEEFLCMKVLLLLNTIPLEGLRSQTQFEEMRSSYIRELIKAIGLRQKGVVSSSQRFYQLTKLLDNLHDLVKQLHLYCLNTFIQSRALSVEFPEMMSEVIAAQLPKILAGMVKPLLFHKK
# [2] = target: T2, human glucocorticoid receptor-α [GRX] isoform (Homo sapiens, UniProt P04150); test: Radioligand binding with human glucocorticoid receptor cytosol ([3H]-dexamethasone competition)
# T2 construct: host or cells: insect SF21 cells (baculovirus)
# T2 sequence (P04150 1-777): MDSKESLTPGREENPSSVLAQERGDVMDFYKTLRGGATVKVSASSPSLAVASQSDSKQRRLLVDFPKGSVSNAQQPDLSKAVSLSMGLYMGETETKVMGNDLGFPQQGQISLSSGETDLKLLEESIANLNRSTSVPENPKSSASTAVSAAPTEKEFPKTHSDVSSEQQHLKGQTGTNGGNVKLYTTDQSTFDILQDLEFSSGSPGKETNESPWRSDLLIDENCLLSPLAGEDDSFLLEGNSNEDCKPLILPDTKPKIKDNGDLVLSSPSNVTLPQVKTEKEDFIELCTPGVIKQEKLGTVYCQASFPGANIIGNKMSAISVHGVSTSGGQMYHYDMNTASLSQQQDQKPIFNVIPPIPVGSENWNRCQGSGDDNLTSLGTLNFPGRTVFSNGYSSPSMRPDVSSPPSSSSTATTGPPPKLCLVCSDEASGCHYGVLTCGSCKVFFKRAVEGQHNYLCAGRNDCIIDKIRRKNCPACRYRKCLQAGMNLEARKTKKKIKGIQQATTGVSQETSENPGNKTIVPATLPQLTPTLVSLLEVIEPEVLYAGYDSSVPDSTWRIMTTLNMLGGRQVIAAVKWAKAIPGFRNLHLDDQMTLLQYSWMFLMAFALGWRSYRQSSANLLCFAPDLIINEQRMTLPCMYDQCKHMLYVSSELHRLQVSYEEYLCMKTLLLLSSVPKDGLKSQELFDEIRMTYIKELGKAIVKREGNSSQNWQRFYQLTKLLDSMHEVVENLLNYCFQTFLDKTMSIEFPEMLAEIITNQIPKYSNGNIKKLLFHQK
# [3] = PRA cytosol expressed in insect SF21 cells, [3H]Prog ~0.8 nM, 4° C. overnight, Ki by Cheng-Prusoff, KL ~4.5 nM
# [4] = GRX cytosol expressed in insect SF21 cells, [3H]-Dex ~0.9 nM, 4° C. overnight, Ki by Cheng-Prusoff, KL ~[…], read-out: Ki (nM) GR
Compound,"Ki [1, 3] [nM]","Ki [2, 4] [nM]",Ki ([2]; Ki (nM) GR) [nM],Ki [1] [nM],Ki ([2]; read-out: Ki (nM) GR) [nM]
"COc1cccc2c1-c1ccc3c(c1C(c1ccccc1)O2)C(C)=NC(C)(C)N3 (stereo not drawn) [Example 358, 2,5-Dihydro-10-methoxy-2,2,4-trimethyl-5-phenyl-1H-[1]benzopyrano[3,4-f]quinazoline]",8960,4.2,,,
"COc1c(O)ccc2c1-c1ccc3c(c1C(=Cc1cccc(F)c1)O2)C(C)=CC(C)(C)N3 [Example 412, 9-Hydroxy-10-methoxy-5-([3-fluorophenyl]methylene)-2,2,4-trimethyl-1H-2,5-dihydro-[1]benzopyrano[3,4-f]quinoline]",222,9,,,
"COc1cccc2c1-c1ccc3c(c1C(CC=C(F)F)O2)C(C)=CC(C)(C)N3 (stereo not drawn) [Example 193, 2,5-Dihydro-10-methoxy-5-(1,1-difluoro-1-propen-3-yl)-2,2,4-trimethyl-1H-[1]benzopyrano[3,4-f]quinoline]",2180,,2,,
CCC1=C[C@@H]([C@H]2Oc3ccc(O)c(OC)c3-c3ccc4c(c32)C(C)=CC(C)(C)N4)CCC1 [Example 277],272,11.3,,,
C=Cc1cccc2c1-c1ccc3c(c1C(C1C=C(C)CCC1)O2)C(C)=CC(C)(C)N3 (stereo not drawn) [Example 341],≥ 10000,2.5,,,
"COc1cccc2c1-c1ccc3c(c1C(CC=C1CCCC1)O2)C(C)=CC(C)(C)N3 (stereo not drawn) [Example 188, 2,5-Dihydro-10-methoxy-5-(2-cyclopentylidenylethyl)-2,2,4-trimethyl-1H-[1]benzopyrano[3,4-f]quinoline]",5300,,4.9,,
C=C(COC(C)=O)CC1Oc2cccc(OC)c2-c2ccc3c(c21)C(C)=CC(C)(C)N3 (stereo not drawn) [Example 49],≥ 10000,13,,,
"CC1=CC(C)(C)Nc2ccc3c(c21)C(C1CCCC1)Oc1ccc(O)c(Cl)c1-3 (single isomer, unassigned; (-)) [Example 422, (−)2,5-Dihydro-9-hydroxy-10-chloro-2,2,4-trimethyl-5-cyclopentyl-1H-[1]benzopyrano[3,4-f]quinoline]",2.9,0.28,,,
"C=CCC1Oc2ccc(Cl)c(C=C)c2-c2ccc3c(c21)C(C)=CC(C)(C)N3 (stereo not drawn) [Example 228, 5-(3-Propenyl)-9-chloro-10-ethenyl-2,2,4-trimethyl-2,5-dihydro-1H-[1]benzopyrano[3,4-f]quinoline]",29.5,5.4,,,
"(+/−)2,5-Dihydro-9-hydroxy-10-methoxy-2,2,4-trimethyl-5(S)-(3(S)-1-hydroxymethylcyclopenten-3-yl)-1H-[1]benzopyrano[3,4-f]quinoline [Example 270]",,,,4760,0.66
COc1cccc2c1-c1ccc3c(c1C(=Cc1ccccc1F)O2)C(C)=CC(C)(C)N3 [Example 126],1410,2.9,,,
"C=CCC1Oc2c(Br)ccc(OC)c2-c2ccc3c(c21)C(C)=CC(C)(C)N3 (stereo not drawn) [Example 298, 10-Methoxy-7-bromo-5-(3-propenyl)-2,2,4-trimethyl-1H-2,5-dihydro-[1]benzopyrano[3,4-f]quinoline]",≥ 10000,4.1,,,
COc1c(Br)cc(Br)c2c1-c1ccc3c(c1C(C1C=C(C)CCC1)O2)C(C)=CC(C)(C)N3 (stereo not drawn) [Example 303],58.5,4.9,,,
"COc1cccc2c1-c1ccc3c(c1C(C/C=C/COC(=O)N(C)C)O2)C(C)=CC(C)(C)N3 (stereo not drawn) [Example 196, (E) 2,5-Dihydro-10-methoxy-5-(4-(N,N-dimethylaminocarbonyloxy)-2-buten-1-yl)-2,2,4-trimethyl-1H-[1]benzopyrano[3,4-f]quinoline]",≥ 10000,1.1,,,
"COc1c(O)ccc2c1-c1ccc3c(c1C(C1CCCCC1)O2)C(C)=CC(C)(C)N3 (stereo not drawn) [Example 278, 2,5-Dihydro-9-hydroxy-10-methoxy-2,2,4-trimethyl-5-cyclohexyl-1H-[1]benzopyrano[3,4-f]quinoline]",533,1.1,,,

# Continued, in another order:
"Ki [1, 3] [nM]","Ki [2, 4] [nM]",Compound,Ki ([2]; Ki (nM) GR) [nM],Ki [1] [nM],Ki ([2]; read-out: Ki (nM) GR) [nM]
3620,5.5,"COc1cccc2c1-c1ccc3c(c1C(c1cccs1)O2)C(C)=CC(C)(C)N3 (stereo not drawn) [Example 129, 2,5-Dihydro-10-methoxy-2,2,4-trimethyl-5-(2-thienyl)-1H-[1]benzopyrano[3,4-f]quinoline]",,,
150,1.1,"COc1c(O)ccc2c1-c1ccc3c(c1C(Cc1ccccc1)O2)C(C)=CC(C)(C)N3 (stereo not drawn) [Example 262, 2,5-Dihydro-9-hydroxy-10-methoxy-5-(phenylmethyl)-2,2,4-trimethyl-1H-[1]benzopyrano[3,4-f]quinoline]",,,
394,3.1,"COc1c(O)ccc2c1-c1ccc3c(c1C(c1cc(Cl)cc(Cl)c1)O2)C(C)=CC(C)(C)N3 (stereo not drawn) [Example 416, 2,5-Dihydro-9-hydroxy-10-methoxy-2,2,4-trimethyl-5-(3,5-dichlorophenyl)-1H-[1]benzopyrano[3,4-f]quinoline]",,,
19500,190,"COc1cccc2c1-c1ccc3c(c1C(C#N)O2)C(C)=CC(C)(C)N3 (stereo not drawn) [Example 44, 2,5-Dihydro-10-methoxy-2,2,4-trimethyl-1H-[1]benzopyrano[3,4-f]quinoline-5-carbonitrile]",,,
≥ 10000,90,"COc1cccc2c1-c1ccc3c(c1C(CC=O)O2)C(C)=CC(C)(C)N3 (stereo not drawn) [Example 186, 2-(2,5-Dihydro-10-methoxy-2,2,4-trimethyl-1H-[1]benzopyrano[3,4-f]quinolin-5-yl)acetaldehyde]",,,
230,1.6,"COc1cc(F)cc2c1-c1ccc3c(c1C(c1ccccc1)O2)C(C)=CC(C)(C)N3 (stereo not drawn) [Example 232, 8-Fluoro-10-methoxy-5-phenyl-2,2,4-trimethyl-2,5-dihydro-1H-[1]benzopyrano[3,4-f]quinoline]",,,
1840,3.8,COc1cccc2c1-c1ccc3c(c1C(C1C=C(CCl)CCC1)O2)C(C)=CC(C)(C)N3 (stereo not drawn) [Example 159],,,
1470,2.4,"COc1c(O)ccc2c1-c1ccc3c(c1C(c1cc(F)c(F)c(F)c1)O2)C(C)=CC(C)(C)N3 (stereo not drawn) [Example 250, 2,5-Dihydro-9-hydroxy-10-methoxy-2,2,4-trimethyl-5-(3,4,5-trifluorophenyl)-1H-[1]benzopyrano[3,4-f]quinoline]",,,
≥ 10000,6.2,"COc1cccc2c1-c1ccc3c(c1C(c1cccc(F)c1)O2)C(C)=CC(C)(C)N3 (stereo not drawn) [Example 56, 5-(3-Fluorophenyl)-2,5-Dihydro-10-methoxy-2,2,4-trimethyl-1H-[1]benzopyrano[3,4-f]quinoline]",,,
4500,10.3,"CNc1cccc2c1-c1ccc3c(c1C(c1cc(Cl)cc(Cl)c1)O2)C(C)=CC(C)(C)N3 (stereo not drawn) [Example 73, 5-(3,5-Dichlorophenyl)-2,5-dihydro-2,2,4,N-tetramethyl-1H[1]benzopyrano[3,4-f]quinolin-10-amine]",,,
≥ 10000,142,"C=CCC1Oc2cccc(CN)c2-c2ccc3c(c21)C(C)=CC(C)(C)N3 (stereo not drawn) [Example 331, 2,5-Dihydro-10-aminomethyl-5-(3-propenyl)-2,2,4-trimethyl-1H-[1]benzopyrano[3,4-f]quinolione]",,,
≥ 10000,8.6,"COc1cccc2c1-c1ccc3c(c1C(c1cccc(OC(C)=O)c1)O2)C(C)=CC(C)(C)N3 (stereo not drawn) [Example 12, 3-(2,5-Dihydro-10-methoxy-2,2,4-trimethyl-1H-[1]benzopyrano[3,4-f]quinolin-5-yl)phenol, Acetate (Ester)]",,,

# — patent US6506766B1 (Abbott Laboratories, priority 1998, dated 2003)
